Reference: PubChem BioAssay AID256 (DTP/NCI, 2004)
Toxic doses and inconclusive results are not listed. The calls were made as follows: active = survival T/C of 150% or more; inactive = T/C below 125% in these data.

Tested on: CD2F1 mice, L1210 leukemia ip, survival T/C
Test: NCI In Vivo Anticancer Drug Screen. Data for tumor model L1210 Leukemia (intraperitoneal) in CD2F1 (CDF1) mice
Settings: endpoint: mean survival time, higher = longer survival
In short: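 Tumor-bearing mice (transplanted tumor) were split into treated and vehicle control groups, and the measured endpoint of each treated group was divided by that of its vehicle controls.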

[1] = dose: 100.0 mg/kg/injection, schedule: Q01DX009 (ip), vehicle: saline with Tween-80
[2] = dose: 100.0 mg/kg/injection, schedule: Q04DX003 (ip), vehicle: saline with Tween-80
[3] = dose: 200.0 mg/kg/injection, schedule: Q01DX009 (ip), vehicle: saline with Tween-80
[4] = dose: 200.0 mg/kg/injection, schedule: Q04DX003 (ip), vehicle: saline with Tween-80
[5] = dose: 400.0 mg/kg/injection, schedule: Q04DX003 (ip), vehicle: saline with Tween-80
[6] = dose: 50.0 mg/kg/injection, schedule: Q01DX009 (ip), vehicle: saline with Tween-80
[7] = dose: 25.0 mg/kg/injection, schedule: Q04DX002 (ip), vehicle: saline with Tween-80
[8] = dose: 50.0 mg/kg/injection, schedule: Q04DX002 (ip), vehicle: saline with Tween-80
[9] = dose: 400.0 mg/kg/injection, schedule: Q01DX009 (ip), vehicle: saline with Tween-80
[10] = dose: 100.0 mg/kg/injection, schedule: Q04DX003 (ip), vehicle: saline
[11] = dose: 200.0 mg/kg/injection, schedule: Q04DX003 (ip), vehicle: saline
[12] = dose: 400.0 mg/kg/injection, schedule: Q04DX003 (ip), vehicle: saline
[13] = dose: 100.0 mg/kg/injection, schedule: Q01DX009 (ip), vehicle: Klucel (hydroxypropylcellulose) (HPC)
[14] = dose: 200.0 mg/kg/injection, schedule: Q01DX009 (ip), vehicle: Klucel (hydroxypropylcellulose) (HPC)
[15] = dose: 50.0 mg/kg/injection, schedule: Q04DX003 (ip), vehicle: saline with Tween-80
[16] = dose: 12.5 mg/kg/injection, schedule: Q04DX002 (ip), vehicle: saline with Tween-80

Measured: T/C

C[n+]1c(/C=C\C=C\N2CCCCC2)sc2ccccc21
inactive: dose: 0.06 mg/kg/injection, schedule: Q01DX009 (ip), vehicle: Klucel (hydroxypropylcellulose) (HPC) 104 % of control | dose: 0.12 mg/kg/injection, schedule: Q01DX009 (ip), vehicle: Klucel (hydroxypropylcellulose) (HPC) 104 % of control | dose: 0.25 mg/kg/injection, schedule: Q01DX009 (ip), vehicle: Klucel (hydroxypropylcellulose) (HPC) 107 % of control | dose: 0.31 mg/kg/injection, schedule: Q01DX009 (ip), vehicle: Klucel (hydroxypropylcellulose) (HPC) 113 % of control | dose: 0.5 mg/kg/injection, schedule: Q01DX009 (ip), vehicle: Klucel (hydroxypropylcellulose) (HPC) 111 % of control | dose: 0.63 mg/kg/injection, schedule: Q01DX009 (ip), vehicle: Klucel (hydroxypropylcellulose) (HPC) 97 % of control | dose: 1.0 mg/kg/injection, schedule: Q01DX009 (ip), vehicle: Klucel (hydroxypropylcellulose) (HPC) 107 % of control | dose: 1.25 mg/kg/injection, schedule: Q01DX009 (ip), vehicle: Klucel (hydroxypropylcellulose) (HPC) 100 % of control | dose: 2.0 mg/kg/injection, schedule: Q01DX009 (ip), vehicle: Klucel (hydroxypropylcellulose) (HPC) 118 % of control | dose: 62.0 micrograms/kg/injection, schedule: Q01DX009 (ip), vehicle: Klucel (hydroxypropylcellulose) (HPC) 104 % of control | dose: 125.0 micrograms/kg/injection, schedule: Q01DX009 (ip), vehicle: Klucel (hydroxypropylcellulose) (HPC) 102 % of control | dose: 250.0 micrograms/kg/injection, schedule: Q01DX009 (ip), vehicle: Klucel (hydroxypropylcellulose) (HPC) 101 % of control | dose: 500.0 micrograms/kg/injection, schedule: Q01DX009 (ip), vehicle: Klucel (hydroxypropylcellulose) (HPC) 101 % of control | dose: 1000.0 micrograms/kg/injection, schedule: Q01DX009 (ip), vehicle: Klucel (hydroxypropylcellulose) (HPC) 113 % of control | dose: 2000.0 micrograms/kg/injection, schedule: Q01DX009 (ip), vehicle: Klucel (hydroxypropylcellulose) (HPC) 108 % of control

O=C(CCCCCC(=O)OCCBr)OCCBr
inactive: dose: 50.0 mg/kg/injection, schedule: Q04DX003 (ip), vehicle: saline sonified 102 % of control | dose: 100.0 mg/kg/injection, schedule: Q04DX003 (ip), vehicle: saline sonified 100 % of control | dose: 200.0 mg/kg/injection, schedule: Q04DX003 (ip), vehicle: saline sonified 93 % of control

CC1CC(C)(C)NC(CCC2NC(C)(C)CC(C)O2)O1 (stereo not given)
inactive: [1] 92 % of control

COc1ccc(OC)c(C(=O)CCl)c1
inactive: [1] 100 % of control | [2] 96 % of control | [3] 102 % of control | [4] 101 % of control | [5] 92 % of control

CCCCC#CC(=O)CCCCC
inactive: [6] 97 % of control | [1] 102 % of control

Cc1cc(N(CCCl)CCCl)c(C)cc1NC(=O)c1ccccc1
inactive: dose: 4.0 mg/kg/injection, schedule: Q01DX009 (ip), vehicle: saline 106 % of control | dose: 6.0 mg/kg/injection, schedule: Q01DX009 (ip), vehicle: saline 115 % of control | dose: 10.0 mg/kg/injection, schedule: Q01DX009 (ip), vehicle: saline 113 % of control | dose: 18.0 mg/kg/injection, schedule: Q01DX009 (ip), vehicle: saline 121 % of control | dose: 30.0 mg/kg/injection, schedule: Q01DX009 (ip), vehicle: saline 124 % of control

CCOP(=S)(N=C=S)OCC
inactive: [7] 98 % of control | [8] 90 % of control

CCOC(=O)c1ccc(N(CCO)CCO)cc1
inactive: dose: 75.0 mg/kg/injection, schedule: Q01DX001 (ip), vehicle: other 94 % of control | dose: 150.0 mg/kg/injection, schedule: Q01DX001 (ip), vehicle: other 97 % of control | dose: 300.0 mg/kg/injection, schedule: Q01DX001 (ip), vehicle: other 102 % of control

Cc1cccc(-c2cc(Cl)c3cc(S(=O)(=O)F)ccc3n2)c1
inactive: [1] 94 % of control | [2] 104 % of control | [3] 93 % of control | [4] 101 % of control | [9] 100 % of control | [5] 92 % of control

CS(=O)(=O)c1nccc2ccccc12
inactive: [10] 90 % of control | [11] 88 % of control | [12] 95 % of control

O=C(OCC(OC(=O)c1ccccc1)C(OC(=O)c1ccccc1)C(COC(=O)c1ccccc1)OC(=O)c1ccccc1)c1ccccc1 (stereo not given)
inactive: dose: 50.0 mg/kg/injection, schedule: Q01DX009 (ip), vehicle: Klucel (hydroxypropylcellulose) (HPC) 97 % of control | [13] 97 % of control | [14] 86 % of control

c1ccc(CCN2CCC(CCc3c[nH]c4ccccc34)CC2)cc1
inactive: [6] 107 % of control | [15] 110 % of control | [2] 104 % of control | [4] 92 % of control

COC1=CC(=O)C=C(OC(C)=O)C12Oc1c(Cl)c(C)c(Cl)c(O)c1C2=O (stereo not given)
inactive: dose: 6.25 mg/kg/injection, schedule: Q04DX002 (ip), vehicle: saline with Tween-80 105 % of control | [16] 98 % of control | [7] 102 % of control

Cc1cccc(CCF)c1
inactive: dose: 100.0 mg/kg/injection, schedule: Q01DX001 (ip), vehicle: saline with Tween-80 110 % of control | dose: 200.0 mg/kg/injection, schedule: Q01DX001 (ip), vehicle: saline with Tween-80 107 % of control | dose: 400.0 mg/kg/injection, schedule: Q01DX001 (ip), vehicle: saline with Tween-80 98 % of control

CC(C)(C)c1cc(C(C)(C)C)nc([N+](C)(C)C)c1
inactive: [16] 108 % of control | [7] 101 % of control | [8] 101 % of control

CC(C)COP(=O)(OCC(C)C)OCC(C)C
inactive: [2] 100 % of control | [4] 92 % of control

COC(OC)C1C2C3C=CC(C4C(=O)OC(=O)C34)C12 (stereo not given)
inactive: [1] 98 % of control | [2] 97 % of control | [3] 93 % of control | [4] 110 % of control | [9] 95 % of control | [5] 103 % of control

Cc1ccc(S(=O)(=O)O)c2c([N+](=O)[O-])cccc12
inactive: [2] 100 % of control | [4] 104 % of control | [5] 96 % of control

CC1COCC(C)N1 (stereo not given)
inactive: [10] 96 % of control | [11] 98 % of control | [12] 96 % of control

Nc1nccc2c1nnn2C1OC(CO)C(O)C1O (stereo not given)
inactive: dose: 12.5 mg/kg/injection, schedule: Q01DX005 (ip), vehicle: water 102 % of control | dose: 25.0 mg/kg/injection, schedule: Q01DX005 (ip), vehicle: water 104 % of control | dose: 50.0 mg/kg/injection, schedule: Q01DX005 (ip), vehicle: water 96 % of control | dose: 100.0 mg/kg/injection, schedule: Q01DX005 (ip), vehicle: water 102 % of control | dose: 200.0 mg/kg/injection, schedule: Q01DX005 (ip), vehicle: water 106 % of control

CC1CC(=O)C=C(O)C1 (stereo not given)
inactive: [2] 93 % of control | [4] 93 % of control | [5] 93 % of control

COc1ccc(OC)c(C2=CCCCCC2)c1OC
inactive: [2] 101 % of control | [4] 101 % of control | [5] 98 % of control

CN1CCN(C(=O)Nc2ccc(N=Nc3ccccc3)cc2)CC1
inactive: dose: 25.0 mg/kg/injection, schedule: Q04DX003 (ip), vehicle: saline with Tween-80 95 % of control | [15] 95 % of control | [2] 88 % of control

O=C(O)c1cc2c3ccccc3ncc2c2ccccc12
inactive: [2] 94 % of control | [4] 100 % of control | [5] 101 % of control

c1ccc2nc(N3CCCCC3)ccc2c1
inactive: [7] 94 % of control | [8] 94 % of control | dose: 100.0 mg/kg/injection, schedule: Q04DX002 (ip), vehicle: saline with Tween-80 94 % of control

COc1ccccc1NC(=O)OCC#CCOC(=O)Nc1ccccc1OC
inactive: [13] 91 % of control | [14] 91 % of control | dose: 400.0 mg/kg/injection, schedule: Q01DX009 (ip), vehicle: Klucel (hydroxypropylcellulose) (HPC) 92 % of control

Oc1ccc(O)c(CCCCCc2cc(O)ccc2O)c1
inactive: dose: 100.0 mg/kg/injection, schedule: Q01DX009 (ip), vehicle: other 102 % of control | dose: 200.0 mg/kg/injection, schedule: Q01DX009 (ip), vehicle: other 98 % of control
